From ChEMBL document CHEMBL1806436, “Structure--activity relationship studies of novel arylsulfonylimidazolidinones for their anticancer activity” (Eur J Med Chem, 2011)

Key:
[1] = system: SW-620; test: Anticancer activity against human SW620 cells xenografted in BALB/c nu/nu mouse assessed as tumor growth inhibition at 65 mg/kg, po every alternative day for 12 days measured on day 19; assay type: functional; details: read-out: TGI
[2] = system: K562; test: Anticancer activity against human K562 cells by MTT assay; assay type: functional, cell-based
[3] = system: A549; test: Anticancer activity against human A549 cells by MTT assay; assay type: functional, cell-based
[4] = system: NCI-H23; test: Anticancer activity against human NCI-H23 cells xenografted in BALB/c nu/nu mouse assessed as tumor growth inhibition at 65 mg/kg, po every alternative day for 12 days measured on day 19; assay type: functional; details: read-out: TGI
[5] = Anticancer activity against human KATO III cells by MTT assay; assay type: functional, cell-based, KATO III cell
[6] = system: COLO 205; test: Anticancer activity against human COLO205 cells by MTT assay; assay type: functional, cell-based
[7] = system: Mus musculus; test: Toxicity in human SW620 cells xenografted BALB/c nu/nu mouse assessed as change in body weight at 65 mg/kg, po administered every alternative day for 12 days measured on day 20 (reference value: 1.1 g); assay type: organism-based, SW-620; parameters: dose 65 mg/kg, route oral; details: in vivo, 288 h
[8] = system: Mus musculus; test: Toxicity in human NCI-H23 cells xenografted BALB/c nu/nu mouse assessed as change in body weight at 65 mg/kg, po administered every alternative day for 12 days measured on day 20 (reference value: 1.2 g); assay type: organism-based; parameters: dose 65 mg/kg, route oral; details: in vivo, 288 h
[9] = system: SK-OV-3; test: Anticancer activity against human SKOV3 cells by MTT assay; assay type: functional, cell-based
[10] = Anticancer activity against mouse P388D1 cells by MTT assay; assay type: functional, cell-based
[11] = system: NCI-H23; test: Anticancer activity against human NCI-H23 cells xenografted in BALB/c nu/nu mouse assessed as tumor growth inhibition at 1 mg/kg, ip qd for 11 days followed by 2 mg/kg, ip qd on day 12 to day 14 and 3 mg/kg, ip qd on day 15 to day 18 measured on day 19; assay type: functional
[12] = system: SW-620; test: Anticancer activity against human SW620 cells xenografted in BALB/c nu/nu mouse assessed as tumor growth inhibition at 1 mg/kg, ip qd for 11 days followed by 2 mg/kg, ip qd on day 12 to day 14 and 3 mg/kg, ip qd on day 15 to day 18 measured on day 19; assay type: functional
[13] = system: Mus musculus; test: Toxicity in human SW620 cells xenografted BALB/c nu/nu mouse assessed as change in body weight at 1 mg/kg, ip qd for 11 days followed by 2 mg/kg, ip qd on day 12 to day 14 and 3 mg/kg, ip qd on day 15 to day 18 measured on day 20 (reference value: 1.1 g); assay type: organism-based, SW-620; details: in vivo, 264 h
[14] = system: Mus musculus; test: Toxicity in human NCI-H23 cells xenografted BALB/c nu/nu mouse assessed as change in body weight at 1 mg/kg, ip qd for 11 days followed by 2 mg/kg, ip qd on day 12 to day 14 and 3 mg/kg, ip qd on day 15 to day 18 measured on day 20 (reference value: 1.2 g); assay type: organism-based; details: in vivo, 264 h

Compound	IC50 [2] [µM]	IC50 [3] [µM]	IC50 [6] [µM]	IC50 [9] [µM]	inhibition in vivo at 65 mg/kg [1] [%]	inhibition in vivo at 65 mg/kg [4] [%]	IC50 [5] [µM]	Activity [7] [g]	Activity [8] [g]	IC50 [10] [µM]	TGI [11] [%]	TGI [12] [%]	Activity [13] [g]	Activity [14] [g]
O=C(NC1CCCCC1)N1CCCc2cc(S(=O)(=O)N3CC(c4ccccc4)NC3=O)ccc21 (stereo not given)	0.813	0.231	3.89	1.84	72.6	65.2	8.92	2	1.6	8.16				
O=C(Nc1ccc(Cl)cc1)NS(=O)(=O)c1ccc2c(c1)CCC2 [SULOFENUR]	19.2	> 20	23.1	78.2			31.4			> 100				
CC1(c2ccccc2)CN(S(=O)(=O)c2ccc3c(c2)CCCN3C(=O)C(F)(F)F)C(=O)N1 (stereo not given)	> 20	> 20	> 20	> 20			> 20			> 20				
O=C(CCl)NC(=O)N1CCCc2cc(S(=O)(=O)N3CC(c4ccccc4)NC3=O)ccc21 (stereo not given)	0.515	0.449	9.9	6.14	67	58.5	2.54	1	-0.6	3.87				
CSc1ccc(NC(=O)N2CCCc3cc(S(=O)(=O)N4CC(C)(c5ccccc5)NC4=O)ccc32)cc1 (stereo not given)	> 20	> 20	> 20	> 20						> 20				
COc1cccc2c1C(=O)c1c(O)c3c(c(O)c1C2=O)C[C@@](O)(C(=O)CO)C[C@@H]3O[C@H]1C[C@H](N)[C@H](O)[C@H](C)O1 [DOXORUBICIN]	0.198		0.4	2.95			4.38			0.338	39.6	45	-2.3	-1.6
O=C(c1ccccc1)N1CCCc2cc(S(=O)(=O)N3CC(c4ccccc4)NC3=O)ccc21 (stereo not given)	1.22	8.14	19.3	8.56			14.3			5.34				
COc1ccc(NC(=O)N2CCCc3cc(S(=O)(=O)N4CC(C)(c5ccccc5)NC4=O)ccc32)cc1 (stereo not given)	12.4	5.3	> 20	9.47						15.9				
O=C1NC(c2ccccc2)CN1S(=O)(=O)c1ccc2c(c1)CCCN2 (stereo not given)	> 20	> 20	7.23	10.4			> 20			4.25				
O=C(CCl)N1CCCc2cc(S(=O)(=O)N3CC(c4ccccc4)NC3=O)ccc21 (stereo not given)	1.09		11.2				3.46							
O=C1NC(c2ccccc2)CN1S(=O)(=O)c1ccc2c(c1)CCCN2C(=O)C(F)(F)F (stereo not given)	> 20	> 20	10.7	19.6			13.1			4.72				

The next lines start with results.

IC50 [2] [µM]	IC50 [3] [µM]	IC50 [6] [µM]	IC50 [9] [µM]	Compound	inhibition in vivo at 65 mg/kg [1] [%]	inhibition in vivo at 65 mg/kg [4] [%]	IC50 [5] [µM]	Activity [7] [g]	Activity [8] [g]	IC50 [10] [µM]	TGI [11] [%]	TGI [12] [%]	Activity [13] [g]	Activity [14] [g]
0.473	4.31	6.58	2.75	C=CCOC(=O)N1CCCc2cc(S(=O)(=O)N3CC(c4ccccc4)NC3=O)ccc21 (stereo not given)			5.05			0.945				
> 20	1.15	4.01	3.48	COC(=O)N1CCCc2cc(S(=O)(=O)N3CC(c4ccccc4)NC3=O)ccc21 (stereo not given)			16.5			2.26				
> 20	0.344	2.78	2.88	CCOC(=O)N1CCCc2cc(S(=O)(=O)N3CC(c4ccccc4)NC3=O)ccc21 (stereo not given)			11.2			1.43				
> 20	1.03	1.42	3.92	CCCOC(=O)N1CCCc2cc(S(=O)(=O)N3CC(c4ccccc4)NC3=O)ccc21 (stereo not given)			3.3			2.02				
2.38	> 20	3.72	5.65	CC(C)COC(=O)N1CCCc2cc(S(=O)(=O)N3CC(c4ccccc4)NC3=O)ccc21 (stereo not given)			2.75			1.25				
3.68	> 20	4.11	9.57	CCCCOC(=O)N1CCCc2cc(S(=O)(=O)N3CC(c4ccccc4)NC3=O)ccc21 (stereo not given)			4.01			2.08				
10.6	> 20	2.82	9.8	O=C(OCCCl)N1CCCc2cc(S(=O)(=O)N3CC(c4ccccc4)NC3=O)ccc21 (stereo not given)			8.68			1.21				
3.66	2.54	> 20	> 20	NC(=O)N1CCCc2cc(S(=O)(=O)N3CC(c4ccccc4)NC3=O)ccc21 (stereo not given)			3.59			12.3				
